According to US11357230B2, “Herbicidal amides” (FMC Corporation, priority 2017, dated 2022):

Tests used:
Assay type in all cases: in vivo
[1] = test system: sedge, umbrella (small-flower umbrella sedge, Cyperus difformis); test: Test B flooded paddy test, umbrella sedge; settings: 250 g ai/ha, Flood (paddy water), 13 to 15 d
Method: (§1) Plant species in the flooded paddy test selected from rice (Oryza sativa), sedge, umbrella (small-flower umbrella sedge, Cyperus difformis), ducksalad (Heteranthera limosa), and barnyardgrass (Echinochloa crus-galli) were grown to the 2-leaf stage for testing. At time of treatment, test pots were flooded to 3 cm above the soil surface, treated by application of test compounds directly to the paddy water, and then maintained at that water depth for the duration of the test. Treated plants and controls were maintained in a greenhouse for 13 to 15 d, after which time all species were compared to controls and visually evaluated. Plant response ratings, summarized in Table B, are based on a scale of 0 to 100 where 0 is no effect and 100 is complete control. A dash (-) response means no test result.

kochia (Kochia scoparia) [2] = test: Test A postemergence, kochia; settings: approximately 10 d
Source text: (§2) Seeds of plant species selected from barnyardgrass (Echinochloa crus-galli), kochia (Kochia scoparia), ragweed (common ragweed, Ambrosia elatior), ryegrass, Italian (Italian ryegrass, Lolium multiflorum), foxtail, green (green foxtail, Setaria viridis), and pigweed (Amaranthus retroflexus) were planted into a blend of loam soil and sand and treated preemergence with a directed soil spray using test chemicals formulated in a non-phytotoxic solvent mixture which included a surfactant. At the same time, plants selected from these weed species and also wheat (Triticum aestivum), corn (Zea mays), blackgrass (Alopecurus myosuroides), and galium (catchweed bedstraw, Galium aparine) were planted in pots containing the same blend of loam soil and sand and treated with postemergence applications of test chemicals formulated in the same manner. Plants ranged in height from 2 to 10 cm and were in the one- to two-leaf stage for the postemergence treatment. Treated plants and untreated controls were maintained in a greenhouse for approximately 10 d, after which time all treated plants were compared to untreated controls and visually evaluated for injury. Plant response ratings, summarized in Table A, are based on a 0 to 100 scale where 0 is no effect and 100 is complete control. A dash (-) response means no test result.

[3] = test system: barnyardgrass (Echinochloa crus-galli); test: Test A preemergence, barnyardgrass; settings: approximately 10 d
Source text: as §2

[4] = test system: foxtail, green (green foxtail, Setaria viridis); test: Test A postemergence, green foxtail; settings: approximately 10 d
Source text: as §2

[5] = test system: blackgrass (Alopecurus myosuroides); test: Test A postemergence, blackgrass; settings: approximately 10 d
Source text: as §2

[6] = test system: pigweed (Amaranthus retroflexus); test: Test A preemergence, pigweed; settings: approximately 10 d
Source text: as §2

[7] = test system: ryegrass, Italian (Italian ryegrass, Lolium multiflorum); test: Test A preemergence, Italian ryegrass; settings: approximately 10 d
Source text: as §2

kochia (Kochia scoparia) [8] = test: Test A preemergence, kochia; settings: approximately 10 d
Source text: as §2

[9] = test system: foxtail, green (green foxtail, Setaria viridis); test: Test A preemergence, green foxtail; settings: approximately 10 d
Source text: as §2

[10] = test system: wheat (Triticum aestivum); test: Test A postemergence, wheat; settings: approximately 10 d
Source text: as §2

[11] = test system: ragweed (common ragweed, Ambrosia elatior); test: Test A postemergence, ragweed; settings: approximately 10 d
Source text: as §2

[12] = test system: barnyardgrass (Echinochloa crus-galli); test: Test A postemergence, barnyardgrass; settings: approximately 10 d
Source text: as §2

[13] = test system: pigweed (Amaranthus retroflexus); test: Test A postemergence, pigweed; settings: approximately 10 d
Source text: as §2

[14] = test system: barnyardgrass (Echinochloa crus-galli); test: Test B flooded paddy test, barnyardgrass; settings: 250 g ai/ha, Flood (paddy water), 13 to 15 d
Method: as §1

[15] = test system: ducksalad (Heteranthera limosa); test: Test B flooded paddy test, ducksalad; settings: 250 g ai/ha, Flood (paddy water), 13 to 15 d
Method: as §1

[16] = test system: ragweed (common ragweed, Ambrosia elatior); test: Test A preemergence, ragweed; settings: approximately 10 d
Source text: as §2

corn (Zea mays) = test: Test A postemergence, corn; settings: approximately 10 d
Source text: as §2

[17] = test system: ryegrass, Italian (Italian ryegrass, Lolium multiflorum); test: Test A postemergence, Italian ryegrass; settings: approximately 10 d
Source text: as §2

rice (Oryza sativa) = test: Test B flooded paddy test, rice; settings: 250 g ai/ha, Flood (paddy water), 13 to 15 d
Method: as §1

[18] = test system: galium (catchweed bedstraw, Galium aparine); test: Test A postemergence, galium; settings: approximately 10 d
Source text: as §2

## CN1C[C@H](c2ccc(C(F)(F)F)cc2)[C@@H](C(=O)Nc2cccc(F)c2F)C1=NN [Compound 2, (3R,4S)—N-(2,3-difluorophenyl)-2-hydrazinylidene-1-methyl-4-[4-(trifluoromethyl)phenyl]-3-pyrrolidinecarboxamide]
[1]
  Plant response rating (scale of 0 to 100, 0 is no effect, 100 is complete control): 50
Kochia (Kochia scoparia) [2]; 31 g ai/ha
  Plant response rating (0 to 100 scale, 0 is no effect, 100 is complete control): 0
Kochia (Kochia scoparia) [2]; 125 g ai/ha
  Plant response rating (0 to 100 scale, 0 is no effect, 100 is complete control): 0
[3]; 31 g ai/ha
  Plant response rating (0 to 100 scale, 0 is no effect, 100 is complete control): 70
[3]; 125 g ai/ha
  Plant response rating (0 to 100 scale, 0 is no effect, 100 is complete control): 90
[4]; 31 g ai/ha
  Plant response rating (0 to 100 scale, 0 is no effect, 100 is complete control): 30
[4]; 125 g ai/ha
  Plant response rating (0 to 100 scale, 0 is no effect, 100 is complete control): 70
[5]; 31 g ai/ha
  Plant response rating (0 to 100 scale, 0 is no effect, 100 is complete control): 0
[5]; 125 g ai/ha
  Plant response rating (0 to 100 scale, 0 is no effect, 100 is complete control): 30
[6]; 31 g ai/ha
  Plant response rating (0 to 100 scale, 0 is no effect, 100 is complete control): 0
[6]; 125 g ai/ha
  Plant response rating (0 to 100 scale, 0 is no effect, 100 is complete control): 80
[7]; 31 g ai/ha
  Plant response rating (0 to 100 scale, 0 is no effect, 100 is complete control): 0
[7]; 125 g ai/ha
  Plant response rating (0 to 100 scale, 0 is no effect, 100 is complete control): 0
Kochia (Kochia scoparia) [8]; 31 g ai/ha
  Plant response rating (0 to 100 scale, 0 is no effect, 100 is complete control): 0
Kochia (Kochia scoparia) [8]; 125 g ai/ha
  Plant response rating (0 to 100 scale, 0 is no effect, 100 is complete control): 60
[9]; 31 g ai/ha
  Plant response rating (0 to 100 scale, 0 is no effect, 100 is complete control): 70
[9]; 125 g ai/ha
  Plant response rating (0 to 100 scale, 0 is no effect, 100 is complete control): 100
[10]; 31 g ai/ha
  Plant response rating (0 to 100 scale, 0 is no effect, 100 is complete control): 0
[10]; 125 g ai/ha
  Plant response rating (0 to 100 scale, 0 is no effect, 100 is complete control): 0
[11]; 31 g ai/ha
  Plant response rating (0 to 100 scale, 0 is no effect, 100 is complete control): 0
[11]; 125 g ai/ha
  Plant response rating (0 to 100 scale, 0 is no effect, 100 is complete control): 0
[12]; 31 g ai/ha
  Plant response rating (0 to 100 scale, 0 is no effect, 100 is complete control): 20
[12]; 125 g ai/ha
  Plant response rating (0 to 100 scale, 0 is no effect, 100 is complete control): 60
[13]; 31 g ai/ha
  Plant response rating (0 to 100 scale, 0 is no effect, 100 is complete control): 0
[13]; 125 g ai/ha
  Plant response rating (0 to 100 scale, 0 is no effect, 100 is complete control): 40
[14]
  Plant response rating (scale of 0 to 100, 0 is no effect, 100 is complete control): 40
[15]
  Plant response rating (scale of 0 to 100, 0 is no effect, 100 is complete control): 0
[16]; 31 g ai/ha
  Plant response rating (0 to 100 scale, 0 is no effect, 100 is complete control): 0
[16]; 125 g ai/ha
  Plant response rating (0 to 100 scale, 0 is no effect, 100 is complete control): 40
Corn (Zea mays); 31 g ai/ha
  Plant response rating (0 to 100 scale, 0 is no effect, 100 is complete control): 10
Corn (Zea mays); 125 g ai/ha
  Plant response rating (0 to 100 scale, 0 is no effect, 100 is complete control): 10
[17]; 31 g ai/ha
  Plant response rating (0 to 100 scale, 0 is no effect, 100 is complete control): 0
[17]; 125 g ai/ha
  Plant response rating (0 to 100 scale, 0 is no effect, 100 is complete control): 30
Rice (Oryza sativa)
  Plant response rating (scale of 0 to 100, 0 is no effect, 100 is complete control): 0
[18]; 31 g ai/ha
  Plant response rating (0 to 100 scale, 0 is no effect, 100 is complete control): 60
[18]; 125 g ai/ha
  Plant response rating (0 to 100 scale, 0 is no effect, 100 is complete control): 60
